Measurements reported in patent publication US20110104175A1, “METHODS OF TREATMENT FOR PULMONARY FIBROSIS” (CEDARS-SINAI MEDICAL CENTER, priority 2008, published 2011).
Where two headings read alike, the source gives them in different places. Peptide text beside a SMILES is read from it.

How the values were obtained:
wild-type and N-KO mice [1] = assay: Survival analysis after intratracheal bleomycin
From the text: (§1) Preparation of Mice. We generated mice expressing site-inactivated ACE by homologous recombination. N-KO mice express a full length ACE protein where the N-terminal catalytic site was inactivated by mutating two zinc-binding histidines (^395H and ^399H) to lysines. In the C-KO strain, ^993H and ^997H, which are responsible for the zinc binding and catalytic activity of the C-terminal enzymatic site, were mutated to lysine. The generation of these two strains of mice has been described in detail prior. Both N-KO and C-KO mice are a genetic mix of strains 129 and C57BL/6. Age and gender-matched littermate controls were used in all studies. All mice used in this study have only one functional renin gene. Drug Administration. The administration of bleomycin was performed under anesthesia by intratracheal instillation as previously described. A small skin incision was made to expose the trachea. A 25-gauge needle was inserted directly into the trachea without reaching the bifurcation and the animals were maintained on the surgical board with a 30 degree angle to ensure a correct diffusion of the drug or saline to both lungs. Bleomycin was solubilized in water, aliquoted, lyophilized and kept at −20 C. For each experiment a fresh aliquot was dissolved in saline and, unless otherwise indicated, administered in a dose of 1 mg/kg. The concentration of the solution was adapted to inject 2 μl/g, The skin was then sutured and the animal monitored until complete recovery.
(§2) Absorbance was measured at 550 nm.

[2] = tested on: wild-type, N-KO and C-KO mice
From the text: as §1, §2

wild-type and N-KO mice [3] = conditions: for cell content of the bronchoalveolar lavage: intratracheal bleomycin without S17092, two weeks
From the text: as §1, §2

wild-type and N-KO mice [4] = assay: Lung histology 14 days after bleomycin; type: in vivo, mouse; conditions: bleomycin 0.5 mg/kg
Procedure: A group of 8 N-KO and 8 wild-type control mice received 0.5 mg/kg body weight of bleomycin. These animals were sacrificed 14 days later. Under deep anesthesia, the thoracic cage was opened to expose the lung. A 25 G needle was secured in the trachea and 0.8 to 1 ml of 10% buffered formalin was injected until the lungs were inflated. The trachea was then ligatured. The whole lung was carefully collected in one block with the heart and immersed in formalin overnight. The tissue was then dehydrated and paraffin embedded using standard techniques. Five micron coronal sections were obtained from the central part of the lung and were stained with either Masson's trichrome or with hematoxylin and eosin. For each animal, both right and left lobes of the lung were examined by a pathologist blinded to the genotype of the mice.

[5] = tested on: wild-type, N-KO and C-KO mice; assay: Weight loss after intratracheal instillation of bleomycin
From the text: as §1
Weight loss is a typical feature secondary to bleomycin administration and is associated with the severity of the pulmonary lesions.

patients = conditions: cited from earlier work
rats = conditions: model of heart infarction; cited from earlier work
[6] = tested on: ACE N-domain and C-terminal domain; conditions: N-domain versus C-terminal domain; cited from earlier work
[7] = mouse; cited from earlier work
[8] = cited from earlier work

## bleomycin
wild-type and N-KO mice [1]; N-KO mice, bleomycin 5 mg/kg body weight intratracheal
  long-term survival: 4 of 15
wild-type and N-KO mice [1]; wild-type mice, bleomycin 5 mg/kg body weight intratracheal
  mice surviving 12 days after drug administration: 1 of 15
wild-type and N-KO mice [1]; wild-type or N-KO mice, bleomycin 1 mg/kg body weight intratracheal
  deaths: virtually no deaths
[2]; N-KO mice, two weeks after intratracheal bleomycin
  pulmonary collagen levels (hydroxyproline): did not increase pulmonary collagen levels
[2]; wild-type and C-KO mice, two weeks after intratracheal bleomycin
  hydroxyproline content of lungs: significantly increased the hydroxyproline content
wild-type and N-KO mice [3]; N-KO mice
  cell content of the bronchoalveolar lavage: 12.73±1.58 10^5 cells per lung
wild-type and N-KO mice [3]; wild-type mice
  cell content of the bronchoalveolar lavage: 24.21±3.10 10^5 cells per lung
wild-type and N-KO mice [4]; N-KO mice
  lung histology (inflammation, collagen stripes) versus wild-type: much reduced
wild-type and N-KO mice [4]; wild-type mice
  lung histology: extensive lung injury
[5]; C-KO mice
  weight loss, C-KO mice versus wild-type controls: no significant difference in weight loss
[5]; N-KO mice
  weight loss: 1.60±1.23%
[5]; wild-type animals
  weight loss: 9.26±2.52%
patients; of the patients who develop lung injury
  patients with lung injury who die of lung injury: 1-3%
patients; patients treated with bleomycin, meta-analysis
  patients developing sufficient lung injury to necessitate cessation of treatment: 10 to 50%

## CC(=O)N[C@@H](CO)C(=O)N[C@@H](CC(=O)O)C(=O)N[C@@H](CCCCN)C(=O)N1CCC[C@H]1C(=O)O [AcSDKP, N-acetyl-seryl-aspartyl-lysyl-proline] (Ac-SDKP-OH)
rats
  collagen deposition: prevented and even reversed collagen deposition
[2]; wild-type mice, AcSDKP 1 mg/kg/day by osmotic minipump, bleomycin
  collagen deposition, as assessed by hydroxyproline: did not significantly reduce the collagen deposition
wild-type and N-KO mice [3]; wild-type mice, AcSDKP 1 mg/kg/day by osmotic minipump, bleomycin on day 2, two weeks later, versus saline-filled minipump
  lavage cellularity: substantially reduced lavage cellularity

## Ac-Asp-(L)Pheψ(PO2—CH2)(L)Ala-Ala-NH2 (Ac-DFAA-NH2; also: Phe2-Ala3 peptide bond replaced by phosphinic ψ(PO2-CH2) bond) [RXP 407]
[6]
  dissociation constant for the ACE N-domain relative to the C-terminal domain: three orders of magnitude lower
[7]
  stability in vivo: stable in vivo
[8]; RXP 407 combined with Ac-SDKP infusion
  elevation of plasma Ac-SDKP: 16 fold
[8]; mouse, RXP 407 alone
  increase of plasma level of Ac-SDKP: ≤ 6 fold
